Data on three compounds can be found in patent US5759842A, “In vitro HIV integrase inhibitors” (Merck & Co., Inc., priority 1996, dated 1998).

Each structure is given as a SMILES string. pIC50: −log10 of the molar value.

One experiment deals with HIV Integrase (Human immunodeficiency virus type 1 group M subtype B, UniProt P04585). Kind of experiment: Assay for Inhibition of Strand Transfer by HIV Integrase. In kind it is biochemical. Here is the method:
Assay for Inhibition of Strand Transfer by HIV Integrase
Inhibition of strand transfer was conducted according to Hazuda, D. J. et al. Nucleic Acids Res., 22, 1121 (1994), hereby incorporated by reference for these purposes.

Experiment [1] addresses DNP-stimulatedATPase activity of rat liver mitochondria. As to conditions: Koenig et al. 1993, read-out: IC50, DNP-stimulated ATPase activity; cited from earlier work.
Experiment [2] concerns the target DNP-stimulatedATPase activity of rat liver mitoplast. As to conditions: Koenig et al. 1993, read-out: IC50, DNP-stimulated ATPase activity; cited from earlier work.

What is called pIC50 is −log10 of the IC50, conventionally taken in molar units. As to `CC=CC1C=CC2CC(C)CCC2C1(C)C(O)=C1C(=O)C(CO)N(C)C1=O` (centres unmarked) [Compound A, equisetin], the pIC50 is 5.15 on HIV Integrase, roughly 8.10 in experiment [1] and roughly 8.10 in experiment [2].
In the case of `CC=CC=CC1C(C)=CC2CC(C)CCC2C1(C)C(O)=C1C(=O)C(CO)N(C)C1=O` (centres unmarked) [Compound B], at HIV Integrase, the pIC50 was 4.96.
`CCCCCC1C(C)=CC2CC(C)CCC2C1(C)C(O)=C1C(=O)C(CO)N(C)C1=O` (centres unmarked) [Compound C] had a negative logarithm of the IC50 (pIC50) against HIV Integrase of 5.30.
